Results from publication PMC3063099 (Xenobiotica; the fate of foreign compounds in biological …, 2010).
Like-named read-outs stand apart in the source and are kept apart here. One block for each molecule: values may come before it.

Key:
CYP3A4 mutant F213W [1] = target: T1, CYP3A4 mutant F213W (Homo sapiens, UniProt P08684, F213W); assay: Absorbance titration, substrate-induced spin shift; settings: for nH (Hill coefficient): Hill equation fit; for Kd: human, pH 7.4
CYP3A4 mutant F304W [2] = target: T2, CYP3A4 mutant F304W (Homo sapiens, UniProt P08684, F304W); assay: Absorbance titration, substrate-induced spin shift; settings: for nH (Hill coefficient): Hill equation fit; for Kd: human, pH 7.4
T2 sequence (P08684 whole entry F304W): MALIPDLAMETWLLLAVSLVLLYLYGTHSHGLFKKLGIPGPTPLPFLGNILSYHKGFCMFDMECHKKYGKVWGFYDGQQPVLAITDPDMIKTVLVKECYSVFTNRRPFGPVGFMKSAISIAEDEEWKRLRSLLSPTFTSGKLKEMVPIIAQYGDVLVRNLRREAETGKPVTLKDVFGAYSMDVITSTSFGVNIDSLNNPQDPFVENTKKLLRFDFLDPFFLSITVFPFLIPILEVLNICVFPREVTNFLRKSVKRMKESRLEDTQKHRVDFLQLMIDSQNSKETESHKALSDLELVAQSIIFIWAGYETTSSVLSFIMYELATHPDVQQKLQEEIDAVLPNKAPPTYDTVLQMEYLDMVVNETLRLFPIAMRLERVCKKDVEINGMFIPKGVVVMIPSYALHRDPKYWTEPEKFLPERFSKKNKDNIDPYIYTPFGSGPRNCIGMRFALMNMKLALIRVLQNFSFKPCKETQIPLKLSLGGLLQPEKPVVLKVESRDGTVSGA

CYP3A4 wild type [3] = target: T3, CYP3A4 wild type (Homo sapiens, UniProt P08684); assay: Absorbance titration, substrate-induced spin shift; settings: for Kd: human, pH 7.4; for nH (Hill coefficient): Hill equation fit
T3 sequence (P08684 whole entry): as the sequence (P08684 whole entry F304W) above, with W304F counted along it

[4] = target: T4, CYP3A4 mutant L211F/D214E (Homo sapiens, UniProt P08684, D214E/L211F); assay: Titration-by-dilution at excess substrate monitored by spin shift; format: binding
T4 sequence (P08684 whole entry L211F/D214E): as the sequence (P08684 whole entry F304W) above, with L211F, D214E, W304F counted along it

[5] = target: T4, CYP3A4 mutant L211F/D214E; assay: Absorbance titration, substrate-induced spin shift; settings: for nH (Hill coefficient): Hill equation fit; for Kd: human, pH 7.4
[6] = target: T4, CYP3A4 mutant L211F/D214E; assay: Titration-by-dilution monitored by FRET; format: binding; settings: for Efficiency of FRET: L211F/D214E
CYP3A4 mutant F304W [7] = target: T2, CYP3A4 mutant F304W; assay: Titration-by-dilution at excess substrate monitored by spin shift; format: binding
CYP3A4 wild type [8] = target: T3, CYP3A4 wild type; assay: as above; format: binding
CYP3A4 wild type [9] = target: T3, CYP3A4 wild type; assay: Titration-by-dilution monitored by FRET; format: binding; settings: for Efficiency of FRET: wild type
CYP3A4 mutant F213W [10] = target: T1, CYP3A4 mutant F213W; assay: Titration-by-dilution monitored by FRET; format: binding; settings: for Efficiency of FRET: F213W
CYP3A4 mutant F304W [11] = target: T2, CYP3A4 mutant F304W; assay: Titration-by-dilution monitored by FRET; format: binding; settings: for Efficiency of FRET: F304W
CYP3A4 mutant F213W [12] = target: T1, CYP3A4 mutant F213W; assay: Titration-by-dilution at excess substrate monitored by spin shift; format: binding
[13] = target: T4, CYP3A4 mutant L211F/D214E; settings: pH 7.4
CYP3A4 mutant F213W [14] = target: T1, CYP3A4 mutant F213W; settings: pH 7.4
CYP3A4 wild type [15] = target: T3, CYP3A4 wild type; settings: pH 7.4
CYP3A4 mutant F304W [16] = target: T2, CYP3A4 mutant F304W; settings: pH 7.4
[17] = equimolar enzyme-substrate mixture
[18] = human, CYP3A4 wild type enzyme in buffer, pH 7.4

T1 sequence (P08684 whole entry F213W): as the sequence (P08684 whole entry F304W) above, with F213W, W304F counted along it

SMILES: OCCCCc1ccc2ccc3cccc4ccc1c2c34 [1-PB, 1-pyrenebutanol]
nH (Hill coefficient) (CYP3A4 mutant F213W [1]; F213W, pH 7.4, 25 °C): 1.07 ± 0.16
nH (Hill coefficient) (CYP3A4 mutant F213W [1]; F213W, pH 7.4, 25 °C, listed as 1-pyrenebutanol): ≤ 1.1
Δhmax, amplitude of the substrate-induced spin shift (CYP3A4 mutant F213W [1]; F213W, absorbance titration, pH 7.4, 25 °C): 57.0 ± 5.9%
FES, fraction of total spin shift caused by the binary complex ES (CYP3A4 mutant F213W [1]; F213W, fit to improved sequential model, KD1 fixed): 7.9 ±1.0%
Kd (CYP3A4 mutant F213W [1]; 0.1 m na-hepes): 12.6 ± 4.6 µM
nH (Hill coefficient) (CYP3A4 mutant F304W [2]; F304W, pH 7.4, 25 °C): 1.07 ± 0.12
nH (Hill coefficient) (CYP3A4 mutant F304W [2]; F304W, pH 7.4, 25 °C, listed as 1-pyrenebutanol): ≤ 1.1
Δhmax, amplitude of the substrate-induced spin shift (CYP3A4 mutant F304W [2]; F304W, absorbance titration, pH 7.4, 25 °C): 57.7 ± 5.6%
FES, fraction of total spin shift caused by the binary complex ES (CYP3A4 mutant F304W [2]; F304W, fit to improved sequential model, KD1 fixed): 15.1 ± 0.8%
Kd (CYP3A4 mutant F304W [2]; 0.1 m na-hepes): 10.7 ± 2 µM
Kd (CYP3A4 wild type [3]; 0.1 m na-hepes): 11.7 ± 2.4 µM
Kd (CYP3A4 wild type [3]): 12.6 µM
nH (Hill coefficient) (CYP3A4 wild type [3]; wild type, pH 7.4, 25 °C): 1.67 ± 0.18
nH (Hill coefficient) (CYP3A4 wild type [3]; wild type, pH 7.4, 25 °C, listed as 1-pyrenebutanol): around 1.7
Δhmax, amplitude of the substrate-induced spin shift (CYP3A4 wild type [3]; wild type, absorbance titration, pH 7.4, 25 °C): 46.7 ± 4.9%
FES, fraction of total spin shift caused by the binary complex ES (CYP3A4 wild type [3]; wild type, fit to improved sequential model): 0
Δhmax, maximal amplitude of the spin shift deduced from fitting ([4]; L211F/D214E, dilution at excess substrate (1:5)): 18.2 ± 7.1%
Kd ([4]; human, CYP3A4 mutant L211F/D214E enzyme in buffer, pH 7.4): 7.3 ± 2.9 µM
nH (Hill coefficient) ([5]; L211F/D214E, pH 7.4, 25 °C): 1.07 ± 0.17
nH (Hill coefficient) ([5]; L211F/D214E, pH 7.4, 25 °C, listed as 1-pyrenebutanol): ≤ 1.1
Δhmax, amplitude of the substrate-induced spin shift ([5]; L211F/D214E, absorbance titration, pH 7.4, 25 °C): 39.4 ± 5.1%
FES, fraction of total spin shift caused by the binary complex ES ([5]; L211F/D214E, fit to improved sequential model, KD1 fixed): 21.0 ± 5.7%
Kd ([5]; 0.1 m na-hepes): 12.1 ± 1.8 µM
Kd ([6]; KD1, L211F/D214E, equimolar enzyme-substrate mixture, FRET, 0.6 mg/ml HPCD): 0.82 ± 0.43 µM
Efficiency of FRET [6, 17]: 108.4 ± 12.9%
Efficiency of FRET ([6]; excess substrate (1:6)): 83.4 ± 16.4%
Δhmax, maximal amplitude of the spin shift deduced from fitting (CYP3A4 mutant F304W [7]; F304W, dilution at excess substrate (1:5)): 23.2 ± 14.0%
Kd (CYP3A4 mutant F304W [7]; human, CYP3A4 mutant F304W enzyme in buffer, pH 7.4): 11.4 ± 1.1 µM
Kd (CYP3A4 wild type [8]; [18]): 10.2 ± 1.2 µM
Δhmax, maximal amplitude of the spin shift deduced from fitting (CYP3A4 wild type [8]; wild type, dilution at excess substrate (1:5)): 49.7 ± 7.3%
Kd (CYP3A4 wild type [9]): 0.25 ± 0.11 µM
Kd (CYP3A4 wild type [9]; [18]): 5 ± 1.1 µM
Efficiency of FRET (CYP3A4 wild type [9]; [17]): 95.2 ± 5.7%
Efficiency of FRET (CYP3A4 wild type [9]; excess substrate (1:4)): 108.0 ± 1.2%
Efficiency of FRET (CYP3A4 mutant F213W [10]; [17]): 80.8 ± 26.4%
Efficiency of FRET (CYP3A4 mutant F213W [10]; excess substrate (1:5)): 109.0 ± 2.0%
Kd (CYP3A4 mutant F213W [10]; KD1, F213W, equimolar enzyme-substrate mixture, FRET, 0.6 mg/ml HPCD): 0.07 ± 0.04 µM
Efficiency of FRET (CYP3A4 mutant F304W [11]; [17]): 99.6 ± 7.8%
Efficiency of FRET (CYP3A4 mutant F304W [11]; excess substrate (1:6)): 109.0 ± 1.6%
Kd (CYP3A4 mutant F304W [11]; KD1, F304W, equimolar enzyme-substrate mixture, FRET, 0.6 mg/ml HPCD): 0.26 ± 0.08 µM
Δhmax, maximal amplitude of the spin shift deduced from fitting (CYP3A4 mutant F213W [12]; F213W, dilution at excess substrate (1:5)): 40.0 ± 16%
Kd (CYP3A4 mutant F213W [12]; human, CYP3A4 mutant F213W enzyme in buffer, pH 7.4): 14.4 ± 1.5 µM

nH (Hill coefficient) (CYP3A4 mutant F213W [1]; F213W, pH 7.4, 25 °C): 1.52 ± 0.30
Kd (CYP3A4 mutant F213W [1]; CYP3A4 mutant F213W enzyme in buffer): 3.5 ± 1.36 µM
nH (Hill coefficient) (CYP3A4 mutant F304W [2]; F304W, pH 7.4, 25 °C): 2.10 ± 0.20
Kd (CYP3A4 mutant F304W [2]; CYP3A4 mutant F304W enzyme in buffer): 3.63 ± 1.46 µM
Kd (CYP3A4 wild type [3]; CYP3A4 wild type enzyme in buffer): 3.66 ± 0.7 µM
nH (Hill coefficient) (CYP3A4 wild type [3]; wild type, pH 7.4, 25 °C): 2.04 ± 0.30
Δhmax, amplitude of the substrate-induced spin shift [13]: 27.9 ± 2.2%
nH (Hill coefficient) ([5]; L211F/D214E, pH 7.4, 25 °C): 1.68 ± 0.16
Kd ([5]; CYP3A4 mutant L211F/D214E enzyme in buffer): 3.67 ± 1.16 µM
Δhmax, amplitude of the substrate-induced spin shift (CYP3A4 mutant F213W [14]): 33.5 ± 2.1%
Δhmax, amplitude of the substrate-induced spin shift (CYP3A4 wild type [15]): 40.0 ± 2.5%
Δhmax, amplitude of the substrate-induced spin shift (CYP3A4 mutant F304W [16]): 36.0 ± 5.2%
SMILES: O=c1cc(-c2ccccc2)oc2c1ccc1ccccc12 [ANF, α-naphthoflavone]
